Experimental data published in patent US20240199558A1, “2,4,6-TRISUBSTITUTED 1,3,5-TRIAZINES AS MODULATORS OF CX3CR1” (ASTRAZENECA AB, priority 2022, published 2024).

Legend:
CX3CR1 [1] = target: T1, CX3CR1 (Homo sapiens (Human), UniProt P49238); experiment: CX3CR1-dependent cell adhesion to recombinant CX3CL1 in human whole blood under flow; type: cell-based; details: recombinant full-length CX3CL1
Procedure: (§1) Adhesion of cells to recombinant full-length human CX3CL1 was monitored under physiological flow using a Cellix VenaFlux microfluidics platform with connected fluorescent microscope and camera, and using Vena8 Fluoro+ Biochips (Cellix) pre-coated with anti-His monoclonal antibody (25 μg/mL; R&D Systems) and His-tagged full-length CX3CL1 (15 μg/mL; R&D Systems).
CX3CR1-Dependent Cell Adhesion to Recombinant CX3CL1 in Human Whole Blood Under Flow
Human whole blood from healthy volunteers was collected using heparin as anti-coagulant. […] Compound stocks or DMSO vehicle were added to 0.5 or 1.0 ml aliquots of blood such that the final concentration of DMSO was 0.1%, corresponding to a 1000-fold dilution of compound stock. Blood was pre-incubated with compound at room temperature for 60 minutes with gentle shaking. DiOC6 (Invitrogen, 5 μM) or Hoechst 33342 (Invitrogen, 300 μM) dye was subsequently added to fluorescently label cells and enable their detection during the flow adhesion assay. To monitor adhesion, blood was allowed to flow through the channels of a Vena8 Fluoro+ biochip at 2.25 dynes per cm^2 for 3-6 minutes prior to capturing images for quantification. Fluorescent cells adhering to the channels were counted and the mean and/or total count across five to six images in each channel were used for calculating concentration-response curves.

CX3CR1 [2] = target: T1, CX3CR1; experiment: hCX3CR1 [125I]-CX3CL1 displacement binding (SPA); details: CHO-hCX3CR1 membranes, [125I]-CX3CL1, SPA beads
Procedure: hCX3CR1 [^125I]-CX3CL1 Displacement Binding (SPA)
CHO-hCX3CR1 membranes (3 μg per well) together with […] [^125I]-CX3CL1 (Perkin Elmer) and different concentrations of competitor compound were incubated together with 400 μg/well WGA coated PVT SPA beads (Perkin Elmer) in 50 mM HEPES (pH 7.4), 10 mM MgCl2, 1 mM EDTA and 0.1% Gelatin in a Greiner polystyrene flat-bottom 384-well plate. The plate was incubated for 20 h at room temperature before the radioactivity was measured using a MicroBeta Trilux reader (PerkinElmer). The DMSO concentration was held constant at 1%.

CX3CR1 [3] = target: T1, CX3CR1; experiment: PathHunter β-arrestin recruitment assay; type: cell-based; details: CHO-K1 CX3CR1 β-Arrestin cells, with CX3CL1
Procedure: PathHunter β-Arrestin Recruitment Assay
β-Arrestin recruitment was measured using the PathHunter® eXpress enzyme fragment complementation assay (DiscoverX #93-0956E2). 3500 CHO-K1 CX3CR1 β-Arrestin cells/well in Opti-MEM were incubated together with different concentrations of CX3CL1 and antagonistic compound in a Greiner tissue culture treated flat-bottom 384-well plate. After 90 min of incubation at 37° C., the detection reagent supplied in the kit was added and incubation continued for 1 h at room temperature, before reading the luminescence with a Victor2 luminescence plate reader (PerkinElmer). The final DMSO concentration was held constant at 1%.

CX3CR1 [4] = target: T1, CX3CR1; experiment: hCX3CR1 [3H]-AZD8797 competitive binding assay (filter); details: CHO-hCX3CR1 membranes, 2 nM [3H]-AZD8797
Method in brief: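 Filtration radioligand displacement assay: competitor titrations compete with 2 nM [3H]-AZD8797 for membranes from CHO cells expressing hCX3CR1 (9 μg/well). Incubation was 2 h at room temperature in HEPES pH 7.4 with MgCl2, CaCl2, 0.5% BSA and 1% DMSO. Filters were washed with ice-cold high-salt (500 mM NaCl) buffer, and retained radioactivity was scintillation-counted.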

CX3CR1 [5] = target: T1, CX3CR1; experiment: Flow adhesion for human B-lymphocyte cell line RPMI-8226; type: cell-based; details: RPMI-8226 cells under flow, recombinant full-length CX3CL1
Procedure: as §1
Flow Adhesion for Human B-Lymphocyte Cell Line RPMI-8226
Cells were cultured in RPMI 1640 medium with GlutaMAX and 20% FBS (HyClone, Perbio). Before each experiment, cells were centrifuged at 320 g and resuspended to 5×10^6 cells per ml in RPMI 1640 with 1% FBS. Cells were pre-incubated for 15 minutes at room temperature with CX3CR1 antagonist in an 8-step 3-fold dilution series starting at 3.3 μM. DMSO concentration was kept constant for all antagonist concentrations at 0.1%. Cells were pumped through the channels of the Vena8 Fluoro+ biochip at 0.5 dynes per cm2 for 3 m prior to capturing microscope images for quantification. Cells adhering to channels were counted and the mean values across five images in each channel were used for calculating the concentration-response curves.

T1 sequence (P49238 whole entry): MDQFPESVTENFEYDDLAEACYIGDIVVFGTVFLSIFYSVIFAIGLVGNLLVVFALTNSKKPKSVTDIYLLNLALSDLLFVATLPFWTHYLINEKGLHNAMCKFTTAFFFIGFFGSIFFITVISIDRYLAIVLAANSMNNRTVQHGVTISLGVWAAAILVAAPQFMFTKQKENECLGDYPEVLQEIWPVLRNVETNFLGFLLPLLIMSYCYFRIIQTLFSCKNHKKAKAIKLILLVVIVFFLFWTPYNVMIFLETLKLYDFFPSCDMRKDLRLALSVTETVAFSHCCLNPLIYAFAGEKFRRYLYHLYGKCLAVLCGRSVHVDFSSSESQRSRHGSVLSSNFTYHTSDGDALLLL

IC50 (CX3CR1 [1]) | IC50 (CX3CR1 [2]) | EC50 (CX3CR1 [3]) | IC50 (CX3CR1 [4]) | IC50 (CX3CR1 [5]) | SMILES
> 30000 nM | > 30000 nM | – | – | – | CC(C)C[C@H](CO)Nc1nc(C[C@H](C)c2ccc(Cl)cn2)nc(NS(C)(=O)=O)n1 (single isomer, unassigned) [Example 149, N-(4-((S*)-2-(5-Chloropyridin-2-yl)propyl)-6-(((R)-1-hydroxy-4-methylpentan-2-yl)amino)-1,3,5-triazin-2-yl)methanesulfonamide]
1400 nM | – | 100 nM | 52 nM | – | COc1cc(F)c([C@H](C)Cc2nc(N[C@@H](CO)CC(C)C)nc(NS(C)(=O)=O)n2)cn1 (single isomer, unassigned) [Example 46, N-(4-((R*)-2-(4-Fluoro-6-methoxypyridin-3-yl)propyl)-6-(((R)-1-hydroxy-4-methylpentan-2-yl)amino)-1,3,5-triazin-2-yl)methanesulfonamide]
– | 430 nM | – | 156 nM | 522 nM | CC(C)C[C@H](CO)Nc1nc(C[C@H](C)c2cccc(F)c2F)nc(NS(C)(=O)=O)n1 (single isomer, unassigned) [Example 143, N-(4-((S*)-2-(2,3-Difluorophenyl)propyl)-6-(((R)-1-hydroxy-4-methylpentan-2-yl)amino)-1,3,5-triazin-2-yl)methanesulfonamide]
499 nM | 68 nM | – | 17 nM | – | CC(C)C[C@H](CO)Nc1nc(C[C@@H](C)c2cccc(Cl)c2F)nc(NS(C)(=O)=O)n1 (single isomer, unassigned) [Example 4, N-(4-((R*)-2-(3-Chloro-2-fluorophenyl)propyl)-6-(((R)-1-hydroxy-4-methylpentan-2-yl)amino)-1,3,5-triazin-2-yl)methanesulfonamide]
543 nM | 637 nM | – | 129 nM | 28 nM | CC(C)C[C@H](CO)Nc1nc(C[C@H](C)c2ccccc2F)nc(NS(C)(=O)=O)n1 (single isomer, unassigned) [Example 145, N-(4-((S*)-2-(2-Fluorophenyl)propyl)-6-(((R)-1-hydroxy-4-methylpentan-2-yl)amino)-1,3,5-triazin-2-yl)methanesulfonamide]
– | 886 nM | – | 48 nM | 158 nM | COc1ccc([C@H](C)Cc2nc(N[C@@H](CO)CC(C)C)nc(NS(C)(=O)=O)n2)cn1 (single isomer, unassigned) [Example 76, N-(4-(((R)-1-Hydroxy-4-methylpentan-2-yl)amino)-6-((R*)-2-(6-methoxypyridin-3-yl)propyl)-1,3,5-triazin-2-yl)methanesulfonamide]
1600 nM | 1530 nM | – | 185 nM | – | CC(C)C[C@H](CO)Nc1nc(C[C@@H](C)c2ccc(Cl)cn2)nc(NS(C)(=O)=O)n1 (single isomer, unassigned) [Example 150, N-(4-((R*)-2-(5-Chloropyridin-2-yl)propyl)-6-(((R)-1-hydroxy-4-methylpentan-2-yl)amino)-1,3,5-triazin-2-yl)methanesulfonamide]
1290 nM | 424 nM | – | 156 nM | – | CC(C)C[C@H](CO)Nc1nc(C[C@H](C)c2ccc(Cl)cc2F)nc(NS(C)(=O)=O)n1 (single isomer, unassigned) [Example 83, N-(4-((S*)-2-(4-Chloro-2-fluorophenyl)propyl)-6-(((R)-1-hydroxy-4-methylpentan-2-yl)amino)-1,3,5-triazin-2-yl)methanesulfonamide]
115 nM | – | – | 32 nM | – | CC(C)C[C@H](CO)Nc1nc(C[C@@H](C)c2ccc(F)c(F)c2F)nc(NS(C)(=O)=O)n1 (single isomer, unassigned) [Example 88, N-(4-(((R)-1-Hydroxy-4-methylpentan-2-yl)amino)-6-((R*)-2-(2,3,4-trifluorophenyl)propyl)-1,3,5-triazin-2-yl)methanesulfonamide]
326 nM | 484 nM | – | 37 nM | 37 nM | CC(C)C[C@H](CO)Nc1nc(C[C@@H](C)c2ccccc2)nc(NS(C)(=O)=O)n1 (single isomer, unassigned) [Example 148, N-(4-(((R)-1-Hydroxy-4-methylpentan-2-yl)amino)-6-((R*)-2-phenylpropyl)-1,3,5-triazin-2-yl)methanesulfonamide]
– | 2470 nM | – | 198 nM | 54 nM | CC(C)C[C@H](CO)Nc1nc(C[C@@H](C)c2ccc(F)cc2)nc(NS(C)(=O)=O)n1 (single isomer, unassigned) [Example 79, N-(4-((R*)-2-(4-Fluorophenyl)propyl)-6-(((R)-1-hydroxy-4-methylpentan-2-yl)amino)-1,3,5-triazin-2-yl)methanesulfonamide]
233 nM | 180 nM | – | 23 nM | 11 nM | CC(C)C[C@H](CO)Nc1nc(C[C@@H](C)c2ccccc2F)nc(NS(C)(=O)=O)n1 (single isomer, unassigned) [Example 146, N-(4-((R*)-2-(2-Fluorophenyl)propyl)-6-(((R)-1-hydroxy-4-methylpentan-2-yl)amino)-1,3,5-triazin-2-yl)methanesulfonamide]
– | 5180 nM | – | 2700 nM | > 3000 nM | COc1ccc([C@@H](C)Cc2nc(N[C@@H](CO)CC(C)C)nc(NS(C)(=O)=O)n2)cn1 (single isomer, unassigned) [Example 75, N-(4-(((R)-1-Hydroxy-4-methylpentan-2-yl)amino)-6-((S*)-2-(6-methoxypyridin-3-yl)propyl)-1,3,5-triazin-2-yl)methanesulfonamide]
109 nM | 948 nM | – | 96 nM | – | CC(C)C[C@H](CO)Nc1nc(C[C@@H](C)c2ccc(F)cc2F)nc(NS(C)(=O)=O)n1 (single isomer, unassigned) [Example 6, N-(4-((R*)-2-(2,4-Difluorophenyl)propyl)-6-(((R)-1-hydroxy-4-methylpentan-2-yl)amino)-1,3,5-triazin-2-yl)methanesulfonamide]
– | 1860 nM | – | 176 nM | 255 nM | CC(C)C[C@H](CO)Nc1nc(C[C@@H](C)c2cnc(C3CC3)nc2)nc(NS(C)(=O)=O)n1 (single isomer, unassigned) [Example 12, N-(4-((R*)-2-(2-Cyclopropylpyrimidin-5-yl)propyl)-6-(((R)-1-hydroxy-4-methylpentan-2-yl)amino)-1,3,5-triazin-2-yl)methanesulfonamide]
– | 566 nM | – | 128 nM | 11 nM | COc1ccc([C@@H](C)Cc2nc(N[C@@H](CO)CC(C)C)nc(NS(C)(=O)=O)n2)c(F)c1 (single isomer, unassigned) [Example 82, N-(4-((S*)-2-(2-Fluoro-4-methoxyphenyl)propyl)-6-(((R)-1-hydroxy-4-methylpentan-2-yl)amino)-1,3,5-triazin-2-yl)methanesulfonamide]
3080 nM | 470 nM | – | 49 nM | 14 nM | COc1ccc([C@H](C)Cc2nc(N[C@@H](CO)CC(C)C)nc(NS(C)(=O)=O)n2)c(F)c1 (single isomer, unassigned) [Example 81, N-(4-((R*)-2-(2-Fluoro-4-methoxyphenyl)propyl)-6-(((R)-1-hydroxy-4-methylpentan-2-yl)amino)-1,3,5-triazin-2-yl)methanesulfonamide]
